Consider 16 compounds from US5214054A, “Azacyclic carboxylic acid derivatives and their preparation and use” (Novo Nordisk A/S, priority 1988, dated 1993).

Structures are written as SMILES. Counter-ions that a name gives are not always drawn.

The test system of one data set is [^3 H]-GABA uptake. The data set can be described thus: in vitro inhibition of [^3 H]-GABA uptake. Format: biochemical. The following applies: Male Wistar rat cortical tissue, 60 min, 30° C., pH 7.5, ligand 0.2 nM. How it is done: The in vitro inhibition of [^3 H]-GABA uptake was assessed essentially by the method of Fjalland (Acta Pharmacol. Toxicol. 42 (1978) 73-76). Male Wistar rat cortical tissue was gently homogenized by hand using a glass teflon homogenizer in 10 volumes of 0.32M sucrose. Incubation was performed in a 40 mM tris HCl buffer (pH 7.5 at 30° C.) containing […], […], 4 mM MgSO4, 2.3 mM CaCl2 and 10 mM glucose, for 60 min. at 30° C. Ligand concentration was 0.2 nM.
One may read the IC50 as the concentration that inhibits the measured activity by half. A higher IC50 goes with weaker potency in that assay. Compound `O=C(O)[C@@H]1CCCN(CCON=C(c2ccccc2)c2ccccc2)C1` [Example 1, (R)-Diphenylmethanone O-[2-(3-carboxypiperidin-1-yl)ethyl]oxime] yielded an IC50 of 82 nM. The same measure, in the same setting: the figure for `Cc1ccccc1C(=NOCCN1CCC[C@@H](C(=O)O)C1)c1sccc1C` [Example 2, (R)-(2-Methylphenyl)-(3-methyl-2-thienyl)methanone O-[2-(3-carboxypiperidin-1-yl)ethyl]oxime hydrochloride] is 44 nM; for `Cc1ccsc1C(=NOCCN1CCC[C@@H](C(=O)O)C1)c1sccc1C` [Example 3, (R)-Bis(3-methyl-2-thienyl)methanone O-[2-(3-carboxypiperidin-1-yl)ethyl]oxime hydrochloride] it is 30 nM; for `CCc1ccccc1C(=NOCCN1CCC[C@@H](C(=O)O)C1)c1sccc1C` [Example 4, (R)-(2-Ethylphenyl)-(3-methyl-2-thienyl)methanone O-[2-(3-carboxypiperidin-1-yl)ethyl]oxime hydrochloride] it is 52 nM. `Cc1ccsc1C(=NOCCN1CCC[C@@H](C(=O)O)C1)c1cccs1` [Example 5, (R)-(3-Methyl-2-thienyl)-(2-thienyl)methanone O-[2-(3-carboxypiperidin-1-yl)ethyl]oxime] registered an IC50 of 64 nM. Same read-out and setting: to `O=C(O)C1CCCN(CCON=C(c2ccccc2)c2ccccc2)C1` (centres unmarked) [Example 25, Diphenylmethanone O-[2-(3-carboxypiperidin-1-yl)ethyl]oxime hydrochloride] belongs 138 nM; to `Cc1ccccc1C(=NOCCN1CCCC(C(=O)O)C1)c1sccc1C` (centres unmarked) [Example 26, (2-Methylphenyl)-(3-methyl-2-thienyl)methanone O-[2-(3-carboxypiperidin-1-yl)ethyl]oxime hydrochloride], 58 nM. `O=C(O)C1=CCCN(CCON=C(c2ccccc2)c2ccccc2)C1` [Example 45, Diphenylmethanone O-[2-(3-carboxy-1,2,5,6-tetrahydropyridin-1-yl)ethyl]oxime] returned an IC50 of 48 nM.

In turn, `Cc1ccsc1C(=NOCCN1CCC=C(C(=O)O)C1)c1sccc1C` [Example 46, Bis(3-methyl-2-thienyl)methanone O-[2-(3-carboxy-1,2,5,6-tetrahydropyridin-1-yl)ethyl]oxime hydrochloride] showed an IC50 of 59 nM. The same measure, in the same setting: the figure for `Cc1ccsc1C(=NOCCN1CCC[C@H](C(=O)O)C1)c1sccc1C` [Example 47, (S)-Bis(3-methyl-2-thienyl)methanone O-[2-(3-carboxypiperidin-1-yl)ethyl]oxime hydrochloride] is 51 nM. On the same count and under the same terms, to `O=C(O)[C@@H]1CCCN(CCON=CC(c2ccccc2)c2ccccc2)C1` [Example 83, E/Z-(R)-2,2-Diphenylacetaldehyde O-[2-(3-carboxy-piperidin-1-yl)ethyl]oxime hydrochloride] belongs 217 nM.

In the next data set the test system is GABA uptake.
Experiment: not given
The following applies: background art; cited from earlier work.
As for `O=C(O)C1CCCN(CCC=C(c2ccccc2)c2ccccc2)C1` (centres unmarked) [SK&F 89976A, N-(4,4-diphenyl-3-buten-1-yl)nipecotic acid], the “inhibition of GABA re-uptake / uptake (in words)” value is “oral inhibitors of GABA uptake”.

For `O=C(O)C1=CCCN(CCC=C(c2ccccc2)c2ccccc2)C1` [SK&F 100330A, N-(4,4-diphenyl-3-buten-l-yl)guvacine], the “inhibition of GABA re-uptake / uptake (in words)” value was “oral inhibitors of GABA uptake”.

Regarding `O=C(O)CC1CCN(CCC=C(c2ccccc2)c2ccccc2)C1` (stereo not drawn) [SK&F 100561, N-(4,4-diphenyl-3-buten-1-yl)homo-β-proline], the “inhibition of GABA re-uptake / uptake (in words)” value is “oral inhibitors of GABA uptake”.

`O=C(O)C1CCCN(CCC=C(c2ccccc2)c2cccs2)C1` (centres unmarked) [SK&F 100604J, N-(4-phenyl-4-(2-thienyl)-3-buten-1-yl)nipecotic acid]: the “inhibition of GABA re-uptake / uptake (in words)” value is recorded as “oral inhibitors of GABA uptake”. For the compound `O=C(O)C1CCCNC1` (centres unmarked) [piperidine-3-carboxylic acid], the “inhibition of GABA re-uptake / uptake (in words)” value is “potent inhibitor of GABA re-uptake”.

Test system in another data set: not given
Experiment: not given
As to conditions: background art; cited from earlier work.
Turning to `O=C(O)C1CCCNC1` (centres unmarked) [piperidine-3-carboxylic acid], the “ability to cross the blood-brain barrier (in words)” value was “unable to cross the blood-brain b arrier”.
